Reference: patent publication US9181264B2, “Fused heteroaryls and their uses” (Hutchison MediPharma Limited, priority 2011, dated 2015)
pIC50: −log10 of the molar value.

Experiments:
[1] = biological target: T1, PI3Kα kinase (Homo sapiens, UniProt P42336); assay: PI3Ka Transcreener ADP assay (fluorescence polarization); format: biochemical; conditions: 10 μM ATP, 30 μmol/L lipid substrate; read-out: IC50, inhibition of PI3Kα kinase
T1 construct: purchased Invitrogen PV4788
Method in brief: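 Transcreener ADP FP assay with PI3Kα (0.2 ng/μL), 30 μmol/L lipid substrate (PIP2) and 10 μM ATP (final) in HEPES pH 7.5 buffer with MgCl2, 0.03% CHAPS, 2% DMSO. 60 min reaction at room temperature, then ADP detection 1.5 h (ex 610/em 670 nm). ADP from standard curve; IC50 fitted.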

[2] = biological target: T2, mTOR kinase (Homo sapiens, UniProt P42345); assay: mTOR LanthaScreen TR-FRET assay; format: biochemical; conditions: 10 μmol/L ATP, GFP-4EBP1 substrate; read-out: IC50, inhibition of mTOR
T2 construct: purchased Invitrogen PV4753
Experimental: Compounds are tested using LanthaScreen TR-FRET Assay. The kinase reaction is completed in 384-well black plate (Corning, Cat. 3676). The final conditions for kinase assay are: 10 μmol/L of ATP, 0.2 ng/μL of mTOR kinase, 0.4 μmol/L of GFP-4EBP1 substrate and assay buffer (50 mmol/L of HEPES, pH 7.5, 0.01% of Tween 20, 1 mmol/L of EGTA, 10 mmol/L of MnCl2, 2 mmol/L of DTT and 1% DMSO).
To each well, 2.5 μL of test compounds in 4% DMSO and 2.5 μL of 0.8 ng/μL mTOR kinase (Invitrogen, PV4753) diluted in assay buffer are added. The reaction is initiated by the addition of 5 μL mixture of 0.8 μmol/L GFP-4EBP1 Substrate (Invitorgen, PV4759) and 20 μmol/L ATP mixtures. The mixture is incubated at room temperature for 60 minutes. 10 μL of 20 mmol/L EDTA and 4 nmol/L Tb-anti-p4EBP1 [pThr46] antibody (Invitrogen, PV4755) diluted in TR-FRET dilution buffer are added and incubated for an additional 1 hour. The plate is then read in a BioTek Synergy2 Reader at excitation of 340 nm and emission of 490 nm and 528 nm.
The inhibition of test compound is calculated based on the ratio of 528 nm/490 nm. IC50 of test compound is obtained using XLfit 2.0 software.

T2 sequence (P42345 1360-2549 limits assumed): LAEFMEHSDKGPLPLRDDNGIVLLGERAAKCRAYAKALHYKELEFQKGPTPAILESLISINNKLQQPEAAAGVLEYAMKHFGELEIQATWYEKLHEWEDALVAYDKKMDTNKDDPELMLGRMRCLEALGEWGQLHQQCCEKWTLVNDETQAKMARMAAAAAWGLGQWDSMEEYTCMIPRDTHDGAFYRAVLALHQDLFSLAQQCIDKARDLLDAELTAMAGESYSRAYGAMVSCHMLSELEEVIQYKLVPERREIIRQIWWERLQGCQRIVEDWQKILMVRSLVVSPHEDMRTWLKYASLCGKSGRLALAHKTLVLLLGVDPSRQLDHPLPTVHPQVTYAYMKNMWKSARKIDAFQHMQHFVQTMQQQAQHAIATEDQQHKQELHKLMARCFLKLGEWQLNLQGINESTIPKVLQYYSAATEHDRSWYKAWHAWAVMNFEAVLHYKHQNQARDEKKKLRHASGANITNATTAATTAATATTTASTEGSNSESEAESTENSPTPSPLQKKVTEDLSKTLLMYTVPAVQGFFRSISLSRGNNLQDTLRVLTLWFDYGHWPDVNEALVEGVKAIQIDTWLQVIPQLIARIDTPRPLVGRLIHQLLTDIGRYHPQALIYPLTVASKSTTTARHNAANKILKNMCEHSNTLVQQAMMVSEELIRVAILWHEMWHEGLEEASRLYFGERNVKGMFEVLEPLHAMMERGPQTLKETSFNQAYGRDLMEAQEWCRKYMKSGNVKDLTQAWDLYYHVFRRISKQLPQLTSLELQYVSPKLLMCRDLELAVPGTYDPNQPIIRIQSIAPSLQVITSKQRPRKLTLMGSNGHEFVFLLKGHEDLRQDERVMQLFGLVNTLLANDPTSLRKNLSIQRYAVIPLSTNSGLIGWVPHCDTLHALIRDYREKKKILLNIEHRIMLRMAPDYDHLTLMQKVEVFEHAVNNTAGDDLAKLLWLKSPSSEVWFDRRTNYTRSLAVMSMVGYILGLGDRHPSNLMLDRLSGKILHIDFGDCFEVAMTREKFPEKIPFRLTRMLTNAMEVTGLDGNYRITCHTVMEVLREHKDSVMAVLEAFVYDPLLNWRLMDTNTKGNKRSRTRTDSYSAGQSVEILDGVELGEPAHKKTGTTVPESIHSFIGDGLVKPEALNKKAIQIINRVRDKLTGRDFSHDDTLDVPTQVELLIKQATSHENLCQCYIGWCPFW
T1 sequence (P42336 whole entry): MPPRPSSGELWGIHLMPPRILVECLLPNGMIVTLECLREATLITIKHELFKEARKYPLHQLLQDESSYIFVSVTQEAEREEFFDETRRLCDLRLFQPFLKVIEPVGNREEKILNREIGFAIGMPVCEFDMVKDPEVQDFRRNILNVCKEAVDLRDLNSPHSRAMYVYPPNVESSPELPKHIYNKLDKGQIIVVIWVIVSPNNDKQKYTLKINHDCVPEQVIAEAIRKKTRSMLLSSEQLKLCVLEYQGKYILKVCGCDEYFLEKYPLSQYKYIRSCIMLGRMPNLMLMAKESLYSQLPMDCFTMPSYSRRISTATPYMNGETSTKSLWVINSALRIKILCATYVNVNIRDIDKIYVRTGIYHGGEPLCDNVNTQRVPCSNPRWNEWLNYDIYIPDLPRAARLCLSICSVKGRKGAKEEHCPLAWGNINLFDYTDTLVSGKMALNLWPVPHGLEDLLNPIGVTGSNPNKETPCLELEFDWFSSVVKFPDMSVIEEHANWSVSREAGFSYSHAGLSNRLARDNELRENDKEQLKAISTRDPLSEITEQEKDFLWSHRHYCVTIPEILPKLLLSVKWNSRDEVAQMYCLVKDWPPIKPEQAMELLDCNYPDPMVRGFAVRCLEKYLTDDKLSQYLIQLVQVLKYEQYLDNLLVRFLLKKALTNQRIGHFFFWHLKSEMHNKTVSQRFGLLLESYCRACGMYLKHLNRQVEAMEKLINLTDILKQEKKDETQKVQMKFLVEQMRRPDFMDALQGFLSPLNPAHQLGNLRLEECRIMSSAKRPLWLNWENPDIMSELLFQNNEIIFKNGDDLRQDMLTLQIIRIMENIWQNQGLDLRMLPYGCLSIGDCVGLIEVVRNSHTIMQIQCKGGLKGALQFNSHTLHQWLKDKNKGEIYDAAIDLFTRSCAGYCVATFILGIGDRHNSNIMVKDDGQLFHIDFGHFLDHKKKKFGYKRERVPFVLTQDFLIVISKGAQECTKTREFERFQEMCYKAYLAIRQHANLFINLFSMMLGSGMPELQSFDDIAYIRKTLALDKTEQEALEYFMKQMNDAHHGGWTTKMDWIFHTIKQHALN
T1 sequence (P27986 whole entry partner): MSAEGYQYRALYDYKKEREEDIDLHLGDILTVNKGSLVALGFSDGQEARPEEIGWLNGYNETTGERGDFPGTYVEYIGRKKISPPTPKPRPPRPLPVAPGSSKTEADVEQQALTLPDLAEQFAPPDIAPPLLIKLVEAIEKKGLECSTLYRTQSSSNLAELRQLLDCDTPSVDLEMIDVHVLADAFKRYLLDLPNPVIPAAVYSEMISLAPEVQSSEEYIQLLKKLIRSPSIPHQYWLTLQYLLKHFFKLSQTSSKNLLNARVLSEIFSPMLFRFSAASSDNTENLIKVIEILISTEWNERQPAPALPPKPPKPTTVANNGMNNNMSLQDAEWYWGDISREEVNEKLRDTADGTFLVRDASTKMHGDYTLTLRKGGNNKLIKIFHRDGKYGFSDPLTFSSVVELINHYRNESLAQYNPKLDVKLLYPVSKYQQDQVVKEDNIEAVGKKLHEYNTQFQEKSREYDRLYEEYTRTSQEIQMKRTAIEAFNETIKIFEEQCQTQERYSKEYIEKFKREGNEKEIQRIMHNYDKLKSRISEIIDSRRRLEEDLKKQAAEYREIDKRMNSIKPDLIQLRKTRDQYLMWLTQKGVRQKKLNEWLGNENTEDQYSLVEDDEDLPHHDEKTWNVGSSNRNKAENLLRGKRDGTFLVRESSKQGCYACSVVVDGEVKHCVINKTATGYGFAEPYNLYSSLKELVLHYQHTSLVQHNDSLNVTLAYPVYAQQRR

| pIC50 [1] | pIC50 [2] | Compound |
| --- | --- | --- |
| > 7.00 | > 7.00 | COc1ncc(-c2ccc3ncc4c(c3c2)n(C)c(=O)n4C)cc1NS(=O)(=O)c1ccc(F)cc1F [Compound 160] |
| > 7.00 | > 7.00 | COc1ncc(-c2ccc3ncc4nnc(CN(C)C)n4c3c2)cc1NS(=O)(=O)C(F)(F)F [Compound 165] |
| > 7.00 | > 7.00 | COc1ncc(-c2ccc3ncc4ncn(CCN(C)C)c4c3n2)cc1NS(=O)(=O)C(F)(F)F [Compound 178] |
| > 7.00 | > 7.00 | COc1ncc(-c2ccc3ncc4nnc(C)n4c3c2)cc1NS(=O)(=O)c1ccccc1 [Compound 181] |

The remaining lines, values behind:

| Compound | pIC50 [1] | pIC50 [2] |
| --- | --- | --- |
| COc1ncc(-c2ccc3ncc4nnn(C)c4c3n2)cc1NS(=O)(=O)c1ccc(F)cc1F [Compound 154] | > 7.00 | > 7.00 |
| COc1ncc(-c2ccc3ncc4nnc(C)n4c3c2)cc1NS(=O)(=O)C(F)(F)F [Compound 155] | > 7.00 | > 7.00 |
| Cc1ncc(-c2ccc3ncc4nnc(C)n4c3c2)cc1NS(=O)(=O)c1ccc(F)cc1F [Compound 156] | > 7.00 | > 7.00 |
| COc1ncc(-c2ccc3ncc4nnc(OC)n4c3c2)cc1NS(=O)(=O)c1ccc(F)cc1F [Compound 157] | > 7.00 | > 7.00 |
| COc1ncc(-c2ccc3ncc4nnc(CN(C)C)n4c3c2)cc1NS(=O)(=O)c1ccc(F)cc1F [Compound 158] | > 7.00 | > 7.00 |
| COc1ncc(-c2ccc3ncc4ncn(C)c4c3n2)cc1NS(=O)(=O)C(F)(F)F [Compound 159] | > 7.00 | > 7.00 |
| COc1ncc(-c2ccc3ncc4nc(C)n(C)c4c3n2)cc1NS(=O)(=O)C(F)(F)F [Compound 166] | > 7.00 | > 7.00 |
| COc1ncc(-c2ccc3ncc4nnc(C)n4c3c2)cc1NS(=O)(=O)c1ccccc1F [Compound 180] | > 7.00 | > 7.00 |
